Results: patent publication US8679442B2, “Fullerene compositions and methods for photochemical purification” (William Marsh Rice University, priority 2009, dated 2014)

What was measured:
[1] = Triplet-state decay kinetics by laser flash photolysis; type: physicochemical; settings: hexane solution, comparable experimental conditions
Description: Measurement of Triplet-State Decay Kinetics in Hexakis-Substituted C60 Fullerene Derivatives. Decay kinetics of the triplet states for the hexakis-substituted C60 derivatives were measured by laser flash photolysis using a 308 nm laser pulse (10-20 mJ with a pulse width of 10 ns). A xenon lamp was used as the monitoring source. […] The test solutions were purged with bubbling argon gas for 15 minutes and then sealed from the atmosphere. Instantaneous generation of the triplet state was induced by laser pulse irradiation with subsequent monitoring between 650 and 770 nm, depending on the specific functional groups present in each hexakis-substituted C60 fullerene derivative.

[2] = Photochemically-induced singlet oxygen production, furfuryl alcohol (FFA) degradation under BLB lamps; settings: 50 μM derivative, 0.5 mM FFA
Description: Photochemically-Induced Singlet Oxygen Production from Hexakis-Substituted C60 Fullerene Derivatives. Photochemical generation of singlet oxygen was performed using a magnetically stirred 60 mL cylindrical quartz reactor surrounded by six 4 W black light blue (BLB) lamps (emission wavelength region: 350-400 nm, Philips TL4W) at ambient temperature (22° C.). The incident light intensity was 3.79×10^−4 Einstein·min^−1L^−1. Reaction solutions containing 50 μM of hexakis-substituted C60 fullerene derivatives 1-4 and 0.5 mM furfuryl alcohol (FFA) as an indicator/reactant for singlet oxygen formed were buffered at pH=7 using 10 mM phosphate buffer. Thereafter, the solutions were exposed to the light source. As the photochemical reaction proceeded, 1 mL sample aliquots were periodically withdrawn from the reactor using a syringe, filtered through a 0.22 μm PTFE filter (Millipore), and injected into a 2 mL amber glass vial for further analysis. The residual FFA concentration was quantified using HPLC. […] Generation of singlet oxygen from commercially-available fullerol is presented for comparison purposes.
Table 1 summarizes the initial degradation rate of FFA in the presence of hexakis-substituted C60 fullerene derivatives 1-4 in comparison to commercially available fullerol and Rose Bengal. Initial FFA degradation rates of hexakis-substituted C60 fullerene derivatives 1-4 in the presence of L-histidine and t-butanol are also presented for comparison. […] As shown by the FFA degradation rate, the singlet oxygen production of the C60 fullerene derivatives was greatest for hexakis-substituted C60 fullerene derivative 4 and smallest for hexakis-substituted C60 fullerene derivative 1.

triplet state formation [1]	Initial FFA Degradation Rate, No Scavenger ([2]; pH 7, 10 mM phosphate buffer, BLB 350-400 nm, no scavenger)	Initial FFA Degradation Rate, L-Histidine Scavenger ([2]; pH 7, BLB 350-400 nm, excess L-histidine)	Initial FFA Degradation Rate, t-Butanol Scavenger ([2]; pH 7, BLB 350-400 nm, t-butanol)	Compound
not detected	–	–	–	c12c3c4c5c1c1c6c7c2c2c8c3c3c9c4c4c%10c5c5c1c1c6c6c%11c7c2c2c7c8c3c3c8c9c4c4c9c%10c5c5c1c1c6c6c%11c2c2c7c3c3c8c4c4c9c5c1c1c6c2c3c41 [C60, Buckminsterfullerene]
–	16.34 ± 0.29	0.07 ± 0.04	16.70 ± 0.47	O=C([O-])c1c(Cl)c(Cl)c(Cl)c(Cl)c1-c1c2cc(I)c(=O)c(I)c-2oc2c(I)c([O-])c(I)cc12.[Na+].[Na+] [Rose Bengal]
